Data on 1 substance can be found in patent US7332473B2, “Peptides and medicinal compositions containing the same” (priority 2002, dated 2008).

Square brackets hold non-standard residues; d marks the D form. Ends that are not written are not given here. Met(O) = CS(=O)CC[C@H](N)C(=O)O

Data set [1] has as its system murine gastric smooth muscles. The data set can be described thus: Inhibition of carbachol-induced constriction of murine gastric smooth muscle (Magnus apparatus). More on the design: species or system ICR mice. Particulars: final concentration 10^−6 M, peptide 1 = 100%.
Data set [2] in a line: Helical content from circular dichroism spectra. Format: physicochemical. As to conditions: 20 mM Tris-HCl buffer (pH 7.4), calculation by Greenfield et al. As for the experimental part:
VIP (peptide 1, SEQ ID NO: 2), peptide 7 (SEQ ID NO: 8) corresponding to 25 residues at the N-terminus of VIP, and peptide 8 (SEQ ID NO: 9), which is a peptide 7 derivative with its methionine-17 being oxidized, were dissolved in a 20 mM Tris-HCl buffer (pH 7.4), and the circular dichroism spectra thereof were examined using the Jasco J-720 (Jasco Corporation). According to analytical calculation of higher-order structure by Greenfield et al., the helical content of peptide 1 was about 50% (FIG. 2).

Take “His-Ser-Asp-Ala-Val-Phe-Thr-Asp-Asn-Tyr-Thr-Arg-Leu-Arg-Lys-Gln-Met(O)-Ala-Val-Lys-Lys-Tyr-Leu-Asn-Ser-NH2 (HSDAVFTDNYTRLRKQ[Met(O)]AVKKYLNS-NH2; N-terminus assumed; SMILES CC(C)C[C@H](NC(=O)[C@H](Cc1ccc(O)cc1)NC(=O)[C@H](CCCCN)NC(=O)[C@H](CCCCN)NC(=O)[C@@H](NC(=O)[C@H](C)NC(=O)[C@H](CCS(C)=O)NC(=O)[C@H](CCC(N)=O)NC(=O)[C@H](CCCCN)NC(=O)[C@H](CCCNC(=N)N)NC(=O)[C@H](CC(C)C)NC(=O)[C@H](CCCNC(=N)N)NC(=O)[C@@H](NC(=O)[C@H](Cc1ccc(O)cc1)NC(=O)[C@H](CC(N)=O)NC(=O)[C@H](CC(=O)O)NC(=O)[C@@H](NC(=O)[C@H](Cc1ccccc1)NC(=O)[C@@H](NC(=O)[C@H](C)NC(=O)[C@H](CC(=O)O)NC(=O)[C@H](CO)NC(=O)[C@@H](N)Cc1c[nH]cn1)C(C)C)[C@@H](C)O)[C@@H](C)O)C(C)C)C(=O)N[C@@H](CC(N)=O)C(=O)N[C@@H](CO)C(N)=O) [Peptide 8]”: the “maximal inhibition of murine gastric smooth muscle constriction (activity, in words)” value in data set [1] is “significantly attenuated compared to that of peptide 7”. Moreover, the helical content result in data set [2] is given as “reduced to about half that of peptide 1”.
